Counter-ions that a name gives are not always drawn.
Legend:
[1] = molecular target: T1, recombinant MAO-A (Homo sapiens, UniProt P21397); assay: Incubation with recombinant MAO-A enzymes; type: in vitro ADME
T1 construct: purchased Corning Life Sciences B.V
T1 sequence (P21397 1-527): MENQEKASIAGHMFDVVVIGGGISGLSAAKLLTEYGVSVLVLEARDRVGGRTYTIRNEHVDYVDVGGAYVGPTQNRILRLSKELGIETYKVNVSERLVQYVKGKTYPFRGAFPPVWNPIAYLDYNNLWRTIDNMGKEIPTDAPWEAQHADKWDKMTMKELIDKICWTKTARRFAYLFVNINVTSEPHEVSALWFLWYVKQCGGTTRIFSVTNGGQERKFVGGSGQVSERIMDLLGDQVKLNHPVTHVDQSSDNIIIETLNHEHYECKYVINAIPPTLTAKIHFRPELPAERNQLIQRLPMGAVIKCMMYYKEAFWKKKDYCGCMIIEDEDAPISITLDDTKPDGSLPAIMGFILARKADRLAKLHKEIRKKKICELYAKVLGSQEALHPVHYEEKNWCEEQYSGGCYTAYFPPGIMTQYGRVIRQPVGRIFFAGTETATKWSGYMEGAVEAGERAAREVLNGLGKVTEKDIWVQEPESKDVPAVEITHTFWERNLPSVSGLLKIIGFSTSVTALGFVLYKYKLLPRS
Procedure: (§1) Corning UltraPool human liver microsomes (HLM) 150 (20 mg/mL), human intestinal microsomes (HIM) pool (10 mg/mL) as well as recombinant human CYP enzymes (with P450 oxidoreductase, OR) including CYP1A2+OR (0.5 nmol), CYP2B6+OR (0.5 nmol), CYP2C8+OR (1.0 nmol), CYP2C9*1+OR (1 nmol), CYP2C19+OR (0.5 nmol), CYP2D6*1+OR (0.5 nmol), CYP2E1+OR + cytochrome b5 (1 nmol), CYP3A4+OR + cytochrome b5 (0.5 nmol), MAO-A (5 mg/mL), MAO-B (5 mg/mL), and UGT1A10 (5 mg/mL) were purchased from Corning Life Sciences B.V (Amsterdam, Netherlands). All microsomes and recombinant enzyme solutions were aliquoted and stored at −80 °C until further use.
(§2) The MAO inhibition assay was based on the assay described in section 2.5.1 and performed identically if not otherwise stated.

[2] = molecular target: T2, recombinant MAO-B (Homo sapiens, UniProt P27338); assay: Incubation with recombinant MAO-B enzymes; type: in vitro ADME
T2 construct: purchased Corning Life Sciences B.V
T2 sequence (P27338 1-520): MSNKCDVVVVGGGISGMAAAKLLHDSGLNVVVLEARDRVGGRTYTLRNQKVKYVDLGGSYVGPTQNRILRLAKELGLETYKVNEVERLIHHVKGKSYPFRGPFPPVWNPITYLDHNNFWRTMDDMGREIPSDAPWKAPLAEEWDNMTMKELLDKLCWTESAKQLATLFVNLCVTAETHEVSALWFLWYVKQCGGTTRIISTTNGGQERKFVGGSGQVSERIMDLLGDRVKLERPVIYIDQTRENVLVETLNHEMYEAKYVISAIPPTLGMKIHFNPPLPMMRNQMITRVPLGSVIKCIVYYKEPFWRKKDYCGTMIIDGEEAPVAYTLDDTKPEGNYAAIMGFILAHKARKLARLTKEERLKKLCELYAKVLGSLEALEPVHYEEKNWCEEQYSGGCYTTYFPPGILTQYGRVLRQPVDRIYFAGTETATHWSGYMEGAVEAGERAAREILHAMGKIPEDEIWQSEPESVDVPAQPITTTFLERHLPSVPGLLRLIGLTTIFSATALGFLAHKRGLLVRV
Procedure: as §1, §2

[3] = Pharmacokinetics and metabolites in mouse plasma after oral psilocybin; type: in vivo, C57BL/6J mice; conditions: for half-life / Cmax / Tmax: male, C57BL/6J, po; for half-life: mouse, plasma, read-out: elimination half-life t1/2 (mean ± SD) (converted); for Cmax: read-out: Cmax (mean ± SD); for Tmax: read-out: tmax (mean ± SD)
Procedure: C57BL/6J adult male mice (Janvier, Le Genest-Saint-Isle, France) were maintained in littermate pairs in standard cages (containing sawdust, a sleeping chamber, tissue paper, and a wood stick) with water and pellet food available ad libitium. The colony room was on a reversed light-dark cycle (dark phase 07:00 to 19:00) with temperature at 22°C and humidity at 50–60%. A total of 10 mice were dosed orally with either 3 mg/kg bodyweight psilocybin (n = 5) or saline solution (n = 5). Dosing and blood sampling were conducted between 09:00 and 13:00. The mouse was placed in a plastic restrainer with the tail protruding through a hole in the end of the tube. The tail was immersed in warm water for 1 min for vasodilation and then a small incision was made on the lateral tail surface near the distal tip. 50 μL of blood was massaged gently into an EDTA-coated capillary blood tube (Mircovette, Sarstedt, Nümbrecht, Germany). The first (baseline) blood sample was collected directly before compound administration via oral gavage and the mouse was then returned to the home cage. Further blood samples were collected at 15, 30, 60, and 120 min post-treatment. Each sample was drawn from the same incision site, with mice maintained in the home cage in the intervening periods. The blood samples were stored on ice and centrifuged for 10 min at 780 × g and 4°C. Subsequently, the plasma was transferred into cryotubes (Protein LoBind, Eppendorf) and stored at −80 °C until analysis. All procedures were conducted under a permit for animal experimentation (ZH038/2022) issued by the Veterinary Office Zurich in accordance with the Animal Protection Act (1978) of Switzerland. The use of psilocybin was authorized by the Federal Office of Public Health (FOPH).
Pharmacokinetic parameters were calculated using Phoenix WinNonlin software (version 8.1.0, Certara, Princeton, USA). The elimination half-life (t1/2, min) was assessed as t1/2 = ln(2)/λ, while the elimination constant was calculated by linear regression in the terminal elimination phase. The maximal plasma concentration (Cmax, ng/mL) and the time to reach this concentration (tmax, h) were direct read-outs of the graphical plots.

[4] = ref Holze et al., 2022a, cited from earlier work
[5] = molecular target: T3, MAO-A in human liver microsomes (HLM) (Homo sapiens, UniProt P21397); assay: Monoamine oxidase A inhibition in human liver microsomes; type: in vitro ADME; conditions: 5 μM kynuramine, t = 240 min
T3 construct: tissue Corning Life Sciences B.V; host or cells: pooled human liver microsomes
T3 sequence (P21397 1-527): T1 sequence (P21397 1-527)

[6] = system: human intestinal microsomes (HIM); assay: Glucuronidation with human intestinal microsomes; type: in vitro ADME; conditions: HIM
Procedure: as §1, with “use. Co-factors including NADPH regenerating system solution A (25 mM NADP+, 66 mM glucose-6-phosphate, and 66 mM MgCl2 in water), NADPH regenerating system solution B (40 U/mL glucose-6-phosphate dehydrogenase in 5 mM sodium citrate), UGT reaction mix solution A (25 mM uridine 5′-diphospho-glucuronic acid in water), and UGT reaction mix solution B (250 mM Tris-HCl, 40 mM MgCl2, and 0.125 mg/mL alamethicin in water) were also obtained from Corning Life Sciences B.V.” for “use.”
The assay described in section 2.5.1 was adjusted to suit the glucuronidation system. […] HLM were diluted as described in section 2.5.1, while HIM or UGT1A10 enzymes were diluted 1:40 (end concentration […] and 0.125 mg/mL, respectively) in the reaction mix. Sampling time points were adjusted to 0, 15, 30, 60, 90, 120, 180, and 240 min.

[7] = molecular target: T4, recombinant human UGT1A10 (Homo sapiens, UniProt Q9HAW8); assay: Glucuronidation with recombinant UGT1A10; type: in vitro ADME
T4 construct: purchased Corning Life Sciences B.V
T4 sequence (Q9HAW8 26-530): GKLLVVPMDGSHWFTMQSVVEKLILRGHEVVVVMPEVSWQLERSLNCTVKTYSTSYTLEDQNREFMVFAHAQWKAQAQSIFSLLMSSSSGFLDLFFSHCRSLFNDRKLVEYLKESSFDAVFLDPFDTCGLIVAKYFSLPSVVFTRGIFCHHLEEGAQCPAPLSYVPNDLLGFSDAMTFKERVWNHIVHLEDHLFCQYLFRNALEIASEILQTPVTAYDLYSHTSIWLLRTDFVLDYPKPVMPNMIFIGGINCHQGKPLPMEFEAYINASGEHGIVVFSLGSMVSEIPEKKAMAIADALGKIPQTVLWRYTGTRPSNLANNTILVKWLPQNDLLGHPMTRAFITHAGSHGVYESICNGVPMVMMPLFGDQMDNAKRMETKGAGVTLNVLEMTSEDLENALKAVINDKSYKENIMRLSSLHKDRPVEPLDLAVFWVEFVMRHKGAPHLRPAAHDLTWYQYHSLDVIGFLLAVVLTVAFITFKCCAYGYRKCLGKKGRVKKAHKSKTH
Procedure: as §1
The assay described in section 2.5.1 was adjusted to suit the glucuronidation system.

[8] = Metabolites in human plasma after oral psilocybin (reanalysed study samples); conditions: 30 mg psilocybin p.o., n = 5
[9] = 1,000 nM DMT, rec. MAO-A, t = 240 min
[10] = 1,000 nM DMT, rec. MAO-B, t = 240 min
[11] = 3 mg/kg, mouse plasma, 3 mg/kg psilocybin p.o., n = 5
[12] = mouse plasma, 3 mg/kg psilocybin p.o., n = 5

O=C(O)Cc1c[nH]c2ccccc12 [IAA, indole-3-acetic acid]
IAA concentration formed from DMT [1, 9]: 30.3 ± 4.2 nM | IAA concentration formed from DMT [2, 10]: 11.5 ± 4.5 nM

CN(C)CCc1c[nH]c2cccc(OC3O[C@H](C(=O)O)[C@@H](O)[C@H](O)[C@H]3O)c12 (some centres unmarked) [psilocin-O-glucuronide]
half-life [3, 11]: 58.2 ± 3.6 min | Cmax [3, 12]: 521 ± 57 ng/mL | Tmax [3, 12]: 21 ± 8.4 min | mean Cmax relative to psilocin (higher) ([3]; mouse plasma, 3 mg/kg psilocybin p.o.): 2.6 fold | elimination half-life t1/2 (mean ± SD) ([3]; mouse plasma, 3 mg/kg psilocybin p.o., n = 5, 3 mg/kg): ~60 min | half-life in mice relative to humans (lower) ([3]; mouse versus human): around 4 fold | plasma concentrations of conjugated psilocin relative to free psilocin (higher) ([4]; clinical studies): around 4 fold | fraction of administered psilocybin dose excreted in urine ([4]; humans, oral psilocybin, within 24 h (time not stated for 4-HIAA)): Approximately 20% | half-life in humans ([4]; humans): around 4 h

Oc1ccnc2ccccc12 [4-HQ, 4-hydroxyquinoline]
4-HQ concentration formed from kynuramine ([5]; HLM with clorgyline): 347 ± 67 nM | 4-HQ concentration formed from kynuramine ([5]; HLM): 1,974 ± 302 nM | 4-HQ concentration formed from kynuramine ([1]; 5 μM kynuramine, rec. MAO-A, t = 300 min): 2,694 ± 264 nM | 4-HQ concentration formed from kynuramine ([2]; 5 μM kynuramine, rec. MAO-B, t = 240 min): 4,692 ± 891 nM

O=C1Nc2c(O)cc(Cl)cc2[C@@](C#CC2CC2)(C(F)(F)F)O1 [OH-efavirenz, 8-hydroxy-efavirenz]
OH-efavirenz glucuronidated ([6]; over 240 min, control condition): 99% | OH-efavirenz peak area ([6]; t = 0): 45,300 ± 5,766 counts | OH-efavirenz peak area ([6]; t = 240 min): 470 ± 394 counts | OH-efavirenz glucuronidated ([7]; rec. UGT1A10, over 240 min, control condition): 98% | OH-efavirenz peak area ([7]; rec. UGT1A10, t = 0): 41,700 ± 10,936 counts | OH-efavirenz peak area ([7]; rec. UGT1A10, t = 240 min): 1,007 ± 155 counts

CN(C)CCc1c[nH]c2cccc(OP(=O)(O)O)c12 [psilocybin]
detection in mouse plasma ([3]; 3 mg/kg psilocybin p.o.): did not detect | detection in human plasma [8]: did not detect

NCCC(=O)c1ccccc1N [kynuramine, kynuramine dihydrobromide]
kynuramine signal ([1]; rec. MAO-A, t = 0 min): 135,200 ± 23,816 counts | kynuramine signal ([1]; rec. MAO-A, t = 300 min): 48,503 ± 12,251 counts | kynuramine signal ([2]; rec. MAO-B, t = 0 min): 82,853 ± 11,336 counts | kynuramine signal ([2]; rec. MAO-B, t = 240 min): 9,533 ± 8,311 counts

O=C(O)Cc1c[nH]c2cccc(OC3O[C@H](C(=O)O)[C@@H](O)[C@H](O)[C@H]3O)c12 (some centres unmarked) [4-HIAA-glucuronide]
half-life [3, 11]: 82.8 ± 16.2 min | Cmax [3, 12]: 30 ± 6.7 ng/mL | Tmax [3, 12]: 27 ± 6.6 min

CN(C)CCc1c[nH]c2ccccc12 [DMT, N,N-dimethyltryptamine]
DMT concentration ([1]; 1,000 nM DMT, rec. MAO-A, t = 0 min): 907 ± 31 nM | DMT concentration [1, 9]: 110 ± 29 nM | DMT concentration ([1]; rec. MAO-A with clorgyline, t = 0 min): 915 ± 11 nM | DMT concentration ([1]; rec. MAO-A with clorgyline, t = 240 min): 853 ± 69 nM | DMT concentration ([2]; 1,000 nM DMT, rec. MAO-B, t = 0 min): 940 ± 47 nM | DMT concentration [2, 10]: 816 ± 56 nM | DMT concentration ([2]; rec. MAO-B with R-deprenyl, t = 0 min): 954 ± 73 nM | DMT concentration ([2]; rec. MAO-B with R-deprenyl, t = 240 min): 1,008 ± 58 nM
